Measurements as given in ChEMBL document CHEMBL1201862, “PubChem BioAssay data set” (2004).
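Cultured in 96-well plates, cells were exposed to test compound for 48 hours across five concentrations. GI50 = concentration required for 50% inhibition of growth.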 Activity calls are given as the source filed them. No stated cut-off is given here; in the data, active = GI50 up to about 1.1 µM and inactive = higher.

Assays:
Experiment in all cases: NCI anticancer screen, dose series, 48 h
NCI/ADR-RES = system: NCI/ADR-RES
KM-20L2 = system: KM-20L2
HOP-18 = system: HOP-18
LXFL 529 = system: LXFL 529

C/C=C(/C)C(=O)O[C@@H]1c2c(C)coc2C[C@H]2CC[C@H](O)[C@H](C)[C@]21C
GI50 (NCI/ADR-RES): 23.1 µM (inactive)

NC(CO)c1ccccc1 (centres undefined)
GI50 (KM-20L2): > 100 µM (inactive) | GI50 (HOP-18): 24.7 µM (inactive) | GI50 (LXFL 529): > 100 µM (inactive)
